Square brackets hold non-standard residues; d marks the D form. Ends that are not written are not given here. Peptide text beside a SMILES is read from it. * marks the point of attachment. Octanoyl = CCCCCCCC(=O)*
Test system: murine Spontaneous Ovarian Teratoma cells (SOT cells)
Test: Survival and ascites accumulation of mice injected with Spontaneous Ovarian Teratoma cells
Type: in vivo
Conditions: for ILS / Median Survival Time: Table I, i.p. days 2 and 5 after SOT cells; for delay of accumulation of ascites fluid (body weight data): Example 1, FIG. 1, untreated mice began to accumulate fluid 5 to 7 days after implantation; for increase in lifespan: Example 1, FIG. 2, median day of death as endpoint; for accumulation of ascites fluid (body weight data) vs control group: Example 3, FIG. 4, peptides 20 mg/kg at 2 days, or 2 and 5 days, adriamycin 5 mg/kg on day 2 only; for survival time and survivors vs control group: Example 3, FIG. 3, 20 mg/kg at 2 days, or at 2 days and 5 days after SOT cells
Protocol: Groups of mice, with six mice in each group, were injected with murine Spontaneous Ovarian Teratoma cells (SOT cells). At day 2, or at day 2 and day 5 after injection, the mice were injected with a saline solution, 5 mg/kg adriamycin (day 2 only), with 22 mg/kg of a peptide having the structure (SEQ ID NO:115)-NH2, or, in which each amino acid residue of (SEQ ID NO:115)-NH2 is a D-amino acid residue, such peptide hereinafter referred to as D-(SEQ ID NO:115)-NH2 or with 130 mg/kg of Cecropin A (SEQ ID NO:116)-NH2. The animals were monitored for survival time, the number of survivors in each group, the increase in lifespan, and the increase in body weight.
The treatment with adriamycin increased the lifespan by 76%.
Groups of mice, with 5 or 6 mice in each group, were injected with Spontaneous Ovarian Teratoma Cells. At 2 days and 5 days after the injection of the Spontaneous Ovarian Teratoma Cells (SOT cells), the groups of mice were injected intraperitoneally with a control saline solution, adriamycin, or with one of the following peptides:
The mice in each group were then monitored for median survival time (in days) and for increase in life span (ILS) vis a vis the control group. The median survival time is the day of death of the third mouse in each group. The results for the groups of mice given intraperitoneal injections of peptide at days 2 and 5 following injection of SOT cells are given in Table I below.
Groups of mice, with 6 mice in each group, were injected with Spontaneous Ovarian Teratoma Cells as described in Example 2. At 2 days, or at 2 days and 5 days after the injection of the SOT cells, the groups of mice were injected with saline (control), adriamycin (5 mg/kg-on day 2 only), or with 20 mg/kg of (SEQ ID NO:115)-NH2 or D-(SEQ ID NO:115)-NH2. The mice were then monitored for survival time, as well as for body weight.

[1] = 22 mg/kg D-(SEQ ID NO:115)-NH2, 130 mg/kg (SEQ ID NO:116)-NH2, 5 mg/kg adriamycin
[2] = administered on day 2 only, 22 mg/kg D-(SEQ ID NO:115)-NH2, 130 mg/kg (SEQ ID NO:116)-NH2, 5 mg/kg adriamycin
[3] = administered on day 2 and day 5, 22 mg/kg D-(SEQ ID NO:115)-NH2, 130 mg/kg (SEQ ID NO:116)-NH2
[4] = dose 130 mg/kg/day, control value not given

## CCCCCCCC(=O)N[C@@H](CCCCN)C(=O)N[C@H](C(=O)N[C@@H](C)C(=O)NCC(=O)N[C@@H](CCCCN)C(=O)N[C@H](C(=O)N[C@@H](C)C(=O)N[C@@H](CCCCN)C(=O)N[C@H](C(=O)N[C@@H](C)C(=O)NCC(=O)N[C@@H](CCCCN)C(=O)N[C@H](C(=O)N[C@@H](C)C(=O)N[C@@H](CCCCN)C(=O)N[C@H](C(=O)N[C@@H](C)C(=O)NCC(=O)N[C@@H](CCCCN)C(=O)N[C@H](C(=O)N[C@@H](C)C(N)=O)[C@@H](C)CC)[C@@H](C)CC)[C@@H](C)CC)[C@@H](C)CC)[C@@H](C)CC)[C@@H](C)CC [Oct-(SEQ ID NO:27)-NH2] (Octanoyl-KIAGKIAKIAGKIAKIAGKIA-NH2)
Dose 20 mg/kg/day, controls 21
  ILS: 100%
  Median Survival Time: 42 days

## COc1cccc2c1C(=O)c1c(O)c3c(c(O)c1C2=O)C[C@@](O)(C(=O)CO)C[C@@H]3O[C@H]1C[C@H](N)[C@H](O)[C@H](C)O1 [adriamycin, reference compound]
[1]
  delay of accumulation of ascites fluid (body weight data): at least 20 days
[2]
  increase in lifespan: 76%
  accumulation of ascites fluid (body weight data) vs control group: delayed and was also significantly less

## (SEQ ID NO:115)-NH2: peptide having the structure (SEQ ID NO:115)-NH2; sequence not printed in the text (GIGKFLKKAKKFAKAFVKIINN-NH2)
  survival time and survivors vs control group: significantly greater survival times and had more survivors
  accumulation of ascites fluid (body weight data) vs control group: delayed and was also significantly less
Dose 20 mg/kg/day, controls 21
  ILS: 100%
  Median Survival Time: 42 days
Dose 22 mg/kg/day, controls 21
  ILS: 81%
  Median Survival Time: 38 days

## (SEQ ID NO:116)-NH2: Cecropin A, amide (KWKLFKKIEKVGQNIRDGIIKAGPAVAVVGQATQIAK-NH2)
[1]
  delay of accumulation of ascites fluid (body weight data): at least 20 days
[3]
  increase in lifespan: 112%
[2]
  increase in lifespan: 100%
[4]
  ILS: 112%
  Median Survival Time: 36 days

## (SEQ ID NO:117)-NH2: peptide of the sequence listing, amide; sequence not printed in the text (GIGKFLKSAKKFGKAFVKILNS-NH2)
Dose 45 mg/kg/day, controls 21
  ILS: 83%
  Median Survival Time: 38 days

## D-(SEQ ID NO:115)-NH2: (SEQ ID NO:115)-NH2 in which each amino acid residue is a D-amino acid residue (G[dI]G[dK][dF][dL][dK][dK][dA][dK][dK][dF][dA][dK][dA][dF][dV][dK][dI][dI][dN][dN]-NH2; N-terminus assumed; SMILES CC[C@@H](C)[C@@H](NC(=O)CN)C(=O)NCC(=O)N[C@H](CCCCN)C(=O)N[C@H](Cc1ccccc1)C(=O)N[C@H](CC(C)C)C(=O)N[C@H](CCCCN)C(=O)N[C@H](CCCCN)C(=O)N[C@H](C)C(=O)N[C@H](CCCCN)C(=O)N[C@H](CCCCN)C(=O)N[C@H](Cc1ccccc1)C(=O)N[C@H](C)C(=O)N[C@H](CCCCN)C(=O)N[C@H](C)C(=O)N[C@H](Cc1ccccc1)C(=O)N[C@@H](C(=O)N[C@H](CCCCN)C(=O)N[C@@H](C(=O)N[C@@H](C(=O)N[C@H](CC(N)=O)C(=O)N[C@H](CC(N)=O)C(N)=O)[C@H](C)CC)[C@H](C)CC)C(C)C)
[1]
  delay of accumulation of ascites fluid (body weight data): at least 20 days
[3]
  increase in lifespan: 144%
[2]
  increase in lifespan: 115%
  survival time and survivors vs control group: significantly greater survival times and had more survivors
  accumulation of ascites fluid (body weight data) vs control group: delayed and was also significantly less
Dose 22 mg/kg/day, controls 17
  ILS: 144%
  Median Survival Time: 41.5 days
Dose 22 mg/kg/day, controls 21
  ILS: 52%
  Median Survival Time: 32 days

## D-(SEQ ID NO:117)-NH2: D-form of (SEQ ID NO:117)-NH2 (G[dI]G[dK][dF][dL][dK][dS][dA][dK][dK][dF]G[dK][dA][dF][dV][dK][dI][dL][dN][dS]-NH2; N-terminus assumed; SMILES CC[C@@H](C)[C@@H](NC(=O)CN)C(=O)NCC(=O)N[C@H](CCCCN)C(=O)N[C@H](Cc1ccccc1)C(=O)N[C@H](CC(C)C)C(=O)N[C@H](CCCCN)C(=O)N[C@H](CO)C(=O)N[C@H](C)C(=O)N[C@H](CCCCN)C(=O)N[C@H](CCCCN)C(=O)N[C@H](Cc1ccccc1)C(=O)NCC(=O)N[C@H](CCCCN)C(=O)N[C@H](C)C(=O)N[C@H](Cc1ccccc1)C(=O)N[C@@H](C(=O)N[C@H](CCCCN)C(=O)N[C@@H](C(=O)N[C@H](CC(C)C)C(=O)N[C@H](CC(N)=O)C(=O)N[C@H](CO)C(N)=O)[C@H](C)CC)C(C)C)
Dose 15 mg/kg/day, controls 21
  ILS: 67%
  Median Survival Time: 35 days

— patent publication US5635479A, “Treatment of gynecological malignancies with biologically active peptides” (Magainin Pharmaceuticals Inc., priority 1995, dated 1997)
